Where two headings read alike, the source gives them in different places.
Columns and labels:
[1] = test system: MCF-7 human cancer cell line; test: In vitro anti-proliferative MTT assay; assay type: cell-based
Description: In the present study, all synthesized cyanopyridine hybrids were subjected to in vitro cytotoxicity testing using the MTT assay method against MCF-7 human cancer.
All cell lines were maintained in RPMI1640 medium containing 10% FBS at 37 °C in 5% CO2 humidified incubator. Cell proliferation assay was determined by the MTT (3-[4,5-dimethyl-2-thiazolyl]-2,5- diphenyl-2H-tetrazolium bromide) method. Briefly, cells were plated in triplicate wells (3–5 × 10^4 cells/well) of 96-well flat-bottomed plates and incubated overnight prior to drug exposure and then treated with different concentrations of the tested compounds for 48 h. After that, 20 μL of MTT reagent at a final concentration of 0.5 mg/mL was added to each well. Cells were then incubated for 2 h with MTT, after which 100 μL of DMSO solution was added to dissolve the formazan salt resulting from the reduction of MTT and the absorbance was read at 570 nm using an automatic plate reader. The IC50 values were calculated according to inhibition ratios from three independent experiments.

PIM-1 kinase = molecular target: T1, PIM-1 kinase (Homo sapiens, UniProt P11309); conditions: cited from earlier work
T1 construct: purchased Promega V4032
T1 sequence (P11309 whole entry): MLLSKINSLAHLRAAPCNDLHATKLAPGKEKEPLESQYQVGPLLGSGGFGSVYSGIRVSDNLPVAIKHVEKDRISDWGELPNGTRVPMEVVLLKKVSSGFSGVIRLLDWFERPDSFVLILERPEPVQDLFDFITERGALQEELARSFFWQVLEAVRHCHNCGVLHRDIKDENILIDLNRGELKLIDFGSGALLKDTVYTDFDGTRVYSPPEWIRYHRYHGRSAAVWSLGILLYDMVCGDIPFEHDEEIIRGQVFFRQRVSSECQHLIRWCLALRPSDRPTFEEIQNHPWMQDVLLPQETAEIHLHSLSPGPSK

[2] = Homo sapiens, MCF7, 48 h, MTT, MCF-7, 48 h treatment, read-out: Cytotoxicity IC50, SD (±), MCF7
[3] = MTT, MCF-7, 48 h treatment, read-out: Cytotoxicity IC50, SD (±), MCF7

“2-(4-(3-Cyano-2-oxo-6-phenyl-1,2-dihydropyridin-4-yl)-2-methoxyphenoxy)-N-phenylacetamide [8a]” showed an IC50 [1] of 14.3 ± 0.59 µM.
In the case of “2-(4-(6-(4-Chlorophenyl)-3-cyano-2-oxo-1,2-dihydropyridin-4-yl)-2-methoxyphenoxy)-N-phenylacetamide [8d]”, the IC50 [1] is reported as 18 ± 0.74 µM.
With “2-(4-(6-(4-Chlorophenyl)-3-cyano-2-oxo-1,2-dihydropyridin-4-yl)-2-methoxyphenoxy)-N-phenylacetamide [9d]” the IC50 [1] was 2.05 µM.
With COc1cc(-c2cc(-c3ccccc3)[nH]c(=O)c2C#N)ccc1OCC(=O)Nc1ccccc1 [7a, 2-(4-(3-Cyano-2-oxo-6-phenyl-1,2-dihydropyridin-4-yl)-2-methoxyphenoxy)-Nphenylacetamide] the melting point was 276 to 278 °C, the IC50 [1, 2] was 8.06 ± 0.33 µM and the IC50 [1, 3] was 8.06 ± 0.33 µM.
COc1cccc(-c2cc(-c3ccc(OCC(=O)Nc4ccccc4)c(OC)c3)c(C#N)c(=O)[nH]2)c1 [7b, 2-(4-(3-Cyano-6-(3-methoxyphenyl)-2-oxo-1,2-dihydropyridin-4-yl)-2methoxyphenoxy)-N-phenylacetamide] gave an IC50 [1, 2] of 56.8 ± 2.34 µM.
COc1ccc(-c2cc(-c3ccc(OCC(=O)Nc4ccccc4)c(OC)c3)c(C#N)c(=O)[nH]2)cc1 [7c, 2-(4-(3-Cyano-6-(4-methoxyphenyl)-2-oxo-1,2-dihydropyridin-4-yl)-2-methoxyphenoxy)-N-phenylacetamide] showed a melting point of 284 to 286 °C, an IC50 [1, 2] of 7.72 ± 1.69 µM and an IC50 [1, 3] of 7.73 ± 0.32 µM.
COc1cc(-c2cc(-c3ccc(Cl)cc3)[nH]c(=O)c2C#N)ccc1OCC(=O)Nc1ccccc1 [7d, 2-(4-(6-(4-Chlorophenyl)-3-cyano-2-oxo-1,2-dihydropyridin-4-yl)-2methoxyphenoxy)-N-phenylacetamide] gave a melting point of 276 to 278 °C and an IC50 [1, 2] of 41.1 ± 1.69 µM.
COc1cc(-c2cc(-c3ccc(Br)cc3)[nH]c(=O)c2C#N)ccc1OCC(=O)Nc1ccccc1 [7e, 2-(4-(6-(4-Bromophenyl)-3-cyano-2-oxo-1,2-dihydropyridin-4-yl)-2-methoxyphenoxy)-N-phenylacetamide] gave an IC50 [1, 2] of 21.9 ± 0.9 µM.
Work on COc1cc(-c2cc(-c3ccco3)[nH]c(=O)c2C#N)ccc1OCC(=O)Nc1ccccc1 [7f, 2-(4-(3-Cyano-6-(furan-2-yl)-2-oxo-1,2-dihydropyridin-4-yl)-2-methoxyphenoxy)-N-phenylacetamide] yielded a melting point of 296 to 298 °C, an IC50 [1, 2] of 3.98 µM and an IC50 [1, 3] of 3.98 ± 0.16 µM.
In the case of COc1cc(-c2cc(-c3cccs3)[nH]c(=O)c2C#N)ccc1OCC(=O)Nc1ccccc1 [7g, 2-(4-(3-Cyano-2-oxo-6-(thiophen-2-yl)-1,2-dihydropyridin-4-yl)-2-methoxyphenoxy)-N-phenylacetamide], the melting point is reported as 293 to 295 °C, the IC50 [1, 2] is reported as 1.92 ± 0.08 µM and the IC50 [1, 3] is reported as 1.93 ± 0.08 µM.
With COc1cc(-c2cc(-c3ccncc3)[nH]c(=O)c2C#N)ccc1OCC(=O)Nc1ccccc1 [7i, 2-(4-(3-Cyano-2-oxo-6-(pyridin-4-yl)-1,2-dihydropyridin-4-yl)-2-methoxyphenoxy)-N-phenylacetamide] the IC50 [1, 2] was 23.9 ± 0.98 µM.
With COc1cc(-c2cc(-c3ccc4ccccc4c3)[nH]c(=O)c2C#N)ccc1OCC(=O)Nc1ccccc1 [7j, 2-(4-(3-Cyano-6-(naphthalen-2-yl)-2-oxo-1,2-dihydropyridin-4-yl)-2-methoxyphenoxy)-N-phenylacetamide] the melting point was over 300 °C and the IC50 [1, 2] was 20.1 ± 0.83 µM.
Compound COc1cccc(-c2cc(-c3ccc(OCC(=O)Nc4ccccc4)c(OC)c3)c(C#N)c(OC)n2)c1 [8b, 2-(4-(3-Cyano-2-methoxy-6-(3-methoxyphenyl)-pyridin-4-yl)-2-methoxy-phenoxy)-N-phenylacetamide] has a melting point of 158 to 160 °C and an IC50 [1, 2] of 36.2 ± 1.49 µM.
With COc1ccc(-c2cc(-c3ccc(OCC(=O)Nc4ccccc4)c(OC)c3)c(C#N)c(OC)n2)cc1 [8c, 2-(4-(3-Cyano-2-methoxy-6-(4-methoxyphenyl)pyridin-4-yl)-2-methoxyphenoxy)-N-phenylacetamide] the melting point was 188 to 190 °C, the IC50 [1, 2] was 3.74 ± 0.15 µM and the IC50 [1, 3] was 3.75 ± 0.15 µM.
COc1cc(-c2cc(-c3ccc(Br)cc3)nc(OC)c2C#N)ccc1OCC(=O)Nc1ccccc1 [8e, 2-(4-(6-(4-Bromophenyl)-3-cyano-2-methoxypyridin-4-yl)-2-methoxyphenoxy)-N-phenylacetamide] showed an IC50 [1, 2] of 42.6 ± 1.75 µM.
COc1cc(-c2cc(-c3ccc4ccccc4c3)nc(OC)c2C#N)ccc1OCC(=O)Nc1ccccc1 [8f] showed a melting point of 193 to 195 °C.
COc1cc(-c2cc(-c3ccco3)nc(OC)c2C#N)ccc1OCC(=O)Nc1ccccc1 [8g, 2-(4-(3-Cyano-6-(furan-2-yl)-2-methoxypyridin-4-yl)-2-methoxyphenoxy)-N-phenyl acetamide] gave a melting point of 178 to 180 °C and an IC50 [1, 2] of 21.3 ± 0.87 µM.
In the case of COc1cc(-c2cc(-c3ccccc3)n(C)c(=O)c2C#N)ccc1OCC(=O)Nc1ccccc1 [9a, 2-(4-(3-Cyano-1-methyl-2-oxo-6-phenyl-1,2-dihydropyridin-4-yl)-2-methoxyphenoxy)-N-phenylacetamide], the IC50 [1, 2] is reported as 9.1 ± 0.37 µM and the IC50 [1, 3] is reported as 9.1 ± 0.37 µM.
Compound COc1cccc(-c2cc(-c3ccc(OCC(=O)Nc4ccccc4)c(OC)c3)c(C#N)c(=O)n2C)c1 [9b, 2-(4-(3-Cyano-6-(3-methoxyphenyl)-1-methyl-2-oxo-1,2-dihydropyridin-4-yl)-2-methoxyphenoxy)-N-phenylacetamide] has an IC50 [1, 2] of 8.79 ± 0.36 µM and an IC50 [1, 3] of 8.8 ± 0.36 µM.
Compound COc1ccc(-c2cc(-c3ccc(OCC(=O)Nc4ccccc4)c(OC)c3)c(C#N)c(=O)n2C)cc1 [9c, 2-(4-(3-Cyano-6-(4-methoxyphenyl)-1-methyl-2-oxo-1,2-dihydropyridin-4-yl)-2-methoxyphenoxy)-N-phenylacetamide] has an IC50 [1, 2] of 26.1 ± 1.07 µM.
Work on COc1cc(-c2cc(-c3ccc(Br)cc3)n(C)c(=O)c2C#N)ccc1OCC(=O)Nc1ccccc1 [9e, 2-(4-(6-(4-Bromophenyl)-3-cyano-1-methyl-2-oxo-1,2-dihydropyridin-4-yl)-2-methoxyphenoxy)-N-phenylacetamide] yielded an IC50 [1, 2] of 18.3 ± 0.75 µM.
COc1cc(-c2cc(-c3ccc4ccccc4c3)n(C)c(=O)c2C#N)ccc1OCC(=O)Nc1ccccc1 [9f, 2-(4-(3-Cyano-1-methyl-6-(naphthalen-2-yl)-2-oxo-1,2-dihydropyridin-4-yl)-2-methoxyphenoxy)-N-phenylacetamide] gave a melting point of 193 to 195 °C and an IC50 [1, 2] of 41.4 ± 1.7 µM.
For COc1cc(-c2cc(-c3ccco3)n(C)c(=O)c2C#N)ccc1OCC(=O)Nc1ccccc1 [9g, 2-(4-(3-Cyano-6-(furan-2-yl)-1-methyl-2-oxo-1,2-dihydropyridin-4-yl)-2-methoxyphenoxy)-N-phenylacetamide], the melting point was 170 to 172 °C and the IC50 [1, 2] was 13.2 ± 0.54 µM.
For N#CC1=C(c2cc3ccccc3nc2Cl)C=C(c2ccc(Br)cc2)NC1Cl (stereo not drawn) [C], the IC50 (PIM-1 kinase) is listed as 0.46 µM.
Work on COc1cccc2c1C(=O)c1c(O)c3c(c(O)c1C2=O)C[C@@](O)(C(=O)CO)C[C@@H]3O[C@H]1C[C@H](N)[C@H](O)[C@H](C)O1 [Doxorubicin, reference compound] yielded an IC50 [1, 2] of 11.5 ± 0.47 µM and an IC50 [1, 3] of 11.5 ± 0.47 µM.
In the case of COc1nc(-c2ccc(OCc3ccccc3)cc2)cc(-c2ccc(N(C)C)cc2)c1C#N [F], the IC50 (PIM-1 kinase) is given as 0.13 µM.
For COc1cc(-c2cc(-c3ccc[n+](C)c3)nc(OC)c2C#N)ccc1OCC(=O)Nc1ccccc1.[I-] [compound 10, 5-cyano-6-methoxy-4-(3-methoxy-4-(2-oxo-2-(phenylamino)ethoxy)phenyl)-1'-methyl-2,3'-bipyridin-1'-iumiodide], the melting point was 284 to 286 °C, the IC50 [1, 2] was 2.13 ± 0.09 µM and the IC50 [1, 3] was 2.14 ± 0.09 µM.
